Laboratory results from PMC8177097 (FEBS letters, 2020).

Assays:
[1] = molecular target: T1, lipocalin Blc (wtBlc) (Escherichia coli, UniProt P0A901); assay: tryptophan fluorescence quenching titration; type: binding
T1 sequence (P0A901 19-177): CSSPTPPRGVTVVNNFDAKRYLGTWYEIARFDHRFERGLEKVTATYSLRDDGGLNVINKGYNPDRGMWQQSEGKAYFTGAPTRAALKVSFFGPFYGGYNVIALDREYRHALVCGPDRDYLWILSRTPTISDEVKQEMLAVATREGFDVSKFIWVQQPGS

[2] = molecular target: T1, lipocalin Blc (wtBlc); assay: spectrophotometric hemin titration; type: binding

Kd [1] [nM]	Kd [2] [nM]	SMILES
0.14 ± 0.1	–	CC1=C(CCC(=O)O)c2cc3[nH]c(cc4nc(cc5[nH]c(cc1n2)c(C)c5C(C)O)C(C)=C4C(C)O)c(C)c3CCC(=O)O (centres unmarked) [HP, hematoporphyrin]
–	1400 ± 300	C=CC1=C(C)C2=Cc3c(C=C)c(C)c4[n]3[Fe][n]3c(c(C)c(CCC(=O)O)c3=CC3=NC(=C4)C(C)=C3CCC(=O)O)=CC1=N2 [heme]
